Data: US8697629B2, “Modulation of intracellular signaling” (Angstrom Pharmaceuticals, Inc., priority 2010, dated 2014)

How the values were obtained:
MEK = MEK phosphorylation (S217/221) in SKOV3 cells, immunoblot and densitometry; format: cell-based
Method: Cells were detached from their culture vessels by brief trypsinization, suspended in complete media and centrifuged at 250×g for 10 min at room temperature. The cell pellets were suspended in Dulbeco's phosphate buffered saline (DPBS) and re-centrifuged for a total of three washes. The cells were then re-suspended at 3.33E5/ml in 24 ml of either RPMI containing 0.5% BSA (Sigma Chem. Co. #A0336) (RPMI/BSA) or the conditioned media of growing NIH3T3 fibroblasts (10% FBS in DMEM) supplemented with 10 ng/ml vascular endothelial growth factor (VEGF) (CMN). The cells were then treated with or without 100 ug/ml soluble hyaluronic acid (HA; human umbilical, Calbiochem #385902) for 30 min at 37° C. under 5% CO2. Aliquots representing 2E6 cells were then plated into 10 cm culture dishes and A6 added to yield final concentrations of 0, 10, 100 and 1000 nM. The cells were cultured overnight (18 hr) at 37° C. under 5% CO2.
After 18 hr of treatment, the media were aspirated from the 10 cm dishes and saved. The plates were washed 3 times with 4 ml of ice-cold DPBS which were pooled with the reserved non-adherent cells. The non-adherent cells were centrifuged at 250×g for 10 min at 4° C., washed twice with cold DPBS, drained and lysed in 50 ul of cold RIPA buffer (ThermoScientific #89901) containing cocktails of broad spectrum phosphatase inhibitors (Calbiochem #524625; used at 2× final concentration) and protease inhibitors (Sigma #P8340) (RIPA/inh.). The 10 cm dishes were drained of remaining wash and the adherent cells lysed by scraping in 200 μL of cold RIPA/inh. For each test condition, the lysates of the non-adherent and adherent populations were combined, vortexed and then centrifuged at 14,000 rpm at 4° C. for 20 min. Aliquots of the cleared lysates were frozen at −80° C. immediately. A small aliquot was reserved for total protein analysis using a BCA Protein Assay Kit (Calbiochem #71285-3).
Samples representing 20 μg of total protein of each lysate were solubilized in the presence of 50 mM Tris pH 6.8, 10% glycerol, 2% SDS and 100 mM DTT for 5 min at 95° C. and then loaded onto 10-20% acrylamide gels (BioRad #345-0044, Tris-HCl, 1 mm, 26 well, 15 μL/well). Electrophoresis was performed using Laemli electrophoresis buffer (0.1% SDS, 25 mM Tris, 192 mM glycine) at 200 V, constant voltage, for one hour. Upon completion of electrophoresis, the proteins were transferred to Immun-Blot PVDF membranes (BioRad #162-0238) in ice-cold 20% methanol in 25 mM Tris, 192 mM glycine for 2 hr at 0.5 Amps, constant current/blotting apparatus. […]
The integrated densities (id) of the bands of interest were measured using Image J software (NIH). […]

A2780 cells = assay: Adhesion of A2780 cells to hyaluronic acid; format: cell-based; settings: immobilized HA; 1 or 10 μM Å6
Method: In FIG. 12 A2780 cells were cultured overnight with or without 10 μM Å6 or 100 ng/ml PMA. The cells were then detached, washed and loaded with 20 μg/ml CFDA-SE for 30 min at 37° C. After washing, the cells were resuspended in PBS containing 10% FCS and triplicate aliquots representing 100,000 cells incubated for 30 min at room temperature with no additions, 1 or 10 μM Å6 or with 20 ng/ml IM7, a blocking anti-CD44 rat monoclonal antibody. The cells were then placed into microtiter wells that had been coated with 50 ul of 1 mg/ml HA overnight and blocked for 30 min with 10% FCS. The cells were allowed to adhere at room temperature for 30 min after which, the wells were decanted and washed 3 times. The fluorescence in each well was assessed (excit./emiss.: 460/536 nm) and the mean fluorescence values (+/standard deviation) of the triplicate determinations calculated.

## acetyl-Lys-Pro-Ser-Ser-Pro-Pro-Glu-Glu-NH2 (Ac-KPSSPPEE-NH2) [Å6]
MEK; CM/V
  CM/V-increased pMEK/MEK ratios: potentiated this response
MEK; under all conditions
  pMEK/MEK: enhanced
A2780 cells
  binding of A2780 cells to HA: does not substantially modulate
